US11254986B2, “Gene signature for immune therapies in cancer” (ALMAC DIAGNOSTICS LIMITED, priority 2015, dated 2022)

Tests used:
[1] = tested on: CXCL10 and CCL5 chemokine production in MDA-MB-436 EV cells; test: Chemokine expression after small molecule inhibitors of ATM, ATR and DNAPK; format: cell-based; conditions: DDRD positive cells (MDA-MB-436 EV), compared to the DMSO control, FIG. 16
Experimental: (§1) The product of Reverse Transcription was diluted 1:10 in Nuclease Free Water (NFW). Each 10 μl PCR reaction, consisted of 0.5 μl of 10 μM Forward primer, 0.5 μl of 10 μM Reverse primer, 5 μl of 2× LightCycler® 480 SYBR Green I Master mix (Roche), 1.5 μl NFW and 2.5 μl diluted Reverse Transcription product. These 10 μl reactions were pipetted into wells of a LightCycler® 480 multiwell 96 plate (Roche), the plate was then sealed using clear adhesive film (Roche). The plate was placed into the LightCycler® 480 (Roche) and run with the following protocol. (95° C. for 10 mins, 45 cycles of; 95° C. for 15 secs, 55° C. for 30 secs and 72° C. for 30 secs, finishing with a melt curve for confirmation of primer specificity. All qPCR data was analysed using the LightCycler® 480 software provided by Roche. For analysis, the Cp value from a technical duplicate was calculated and the relative amount of a gene was calculated Cp value to an in-run standard curve. Each mean value was then normalised to the mean concentration of the housekeeping gene PUM1 within the corresponding sample, by dividing the concentration of the target gene by the concentration of the house keeping gene. Relative expression refers to the gene expression levels that have been normalised to the housekeeping gene and made relative to the associated control samples. From these normalized values, the fold changes for each gene were calculated and the average of three individual fold changes were derived from three independent experimental triplicates. The unpaired, two-tailed students T-test available on GraphPad Prism 5.0 software was used to detect statistical significance.
(§2) For analysis of effects of ATM, ATR and DNAPK on cytokine expression, cells were seeded in six well plates at ˜60% confluency. Following incubation overnight, small molecule inhibitors of ATM (Ku60019, Selleck Chem) at a dose of 1 μm, ATR (ETP46464, Selleck Chem) at a dose of 5 μm and DNAPK (Nu7441, Selleck Chem) at a dose of 5 μm were added. At 24 hours, RNA and protein samples were obtained for analysis. For analysis of the effects of DNA damaging agents and paclitaxel on cytokine expression, cells were seeded in six well plates at ˜60% confluency. Following incubation overnight, IC50 doses of Cisplatin and Paclitaxel (obtained from fresh Pharmacy stock) and Hydroxyurea (Sigma Aldrich) were added for 24 hours to 48 hours. At the appropriate timepoint, RNA and protein samples were obtained for analysis.

[2] = tested on: HCC1937 parental and HCC1937-BR cells; conditions: HCC1937 BRCA1 mutant cell-line relative to BRCA1 corrected cell-line (HCC1937-BR); FIG. 8C
Experimental: The cell-lines were routinely maintained in RPMI-1640 medium supplemented with 50 U penicillin/ml, 50 μg streptomycin/ml, 2 mM glutamine, 1 mM Sodium Pyruvate and 20% (v/v) fetal bovine serum (FBS). The HCC1937-EV and HCC937-BR cell-lines also required 0.2 ml/mg geneticin. Cell-lines were cultured at 37° C. with a humidified atmosphere of 5% CO2.
Twenty-four hours following seeding the cells were exposed to medium containing increasing doses of drug. Cell medium was replenished every 4-5 days. After 12-14 days the cells were fixed in methanol, stained with crystal violet and counted. The percentage survival of control for a given dose was calculated as the plating efficiencies for that dose divided by the plating efficiencies of vehicle-treated cells. Survival curves and half maximal inhibitory concentration (IC50) values were calculated using GraphPad Prism.

[3] = tested on: CXCL10 and CCL5 expression; test: qRT-PCR of chemokine expression after DNA damaging agents, paclitaxel or nocodazole; format: cell-based
Experimental: Reverse transcription was performed using the First Strand cDNA synthesis kit (Roche). 500 ng of RNA was reverse transcribed according to manufacturer's instructions. Exon-spanning qPCR primers were designed using Roche Universal Probe Library Assay Design Centre and were used at a concentration of 0.5 μM. The following primer sequences were used:
To preform absolute quantification from qPCR, we used a standard curve method. The efficiency of each primer set was derived from the standard curve using the following equation: E=10^(−1/slope)
as §1
as §2, with “Following incubation overnight, IC50 doses of Cisplatin and Paclitaxel (obtained from fresh Pharmacy stock) and Hydroxyurea (Sigma Aldrich) were added for 24 hours to 48 hours. At the appropriate timepoint, RNA and protein samples were obtained for analysis.” left out

[4] = tested on: HeLa, HCC1937 EV and MDA-MB-436 EV cells; test: Cell cycle analysis (propidium iodide, flow cytometry); format: cell-based; conditions: anti-mitotic agent treatment; FIG. 15
Experimental: as §2
Cells were trypsinised and fixed in 70% ethanol, incubated with RNase A and propidium iodide (P1) and analysed using a BD FACSCalibur™ (BD Biosciences, CA, USA). Data was analysed using Flow Jo software to perform cell cycle analysis.

[5] = tested on: cytosolic DNA in HeLa cells; test: PicoGreen fluorescent staining of double-stranded DNA, confocal microscopy; format: cell-based; conditions: IC50 doses, FIG. 19C
From the text: We probed cytosolic fractions of DDRD positive cells MDA-436-EV and +BRCA1, and HCC1937-EV and +BRCA1 cells for the presence of Histone H3, and found Histone H3 protein expression was increased in the repair deficient lines (EV) (FIG. 19A, top panel of blots). […] PicoGreen fluorescent staining was used to detect double-stranded DNA (ds-DNA). […] This increase in cytosolic DNA was however not observed in response to treatment with Paclitaxel (HeLa+Paclitaxel IC50) (FIG. 19C).

[6] = tested on: PDL1; test: PDL1 expression in RKO cells after Interferon-γ, qPCR and western blot; format: cell-based; conditions: for PDL1 gene expression levels (fold change): RKO Par, RKO Fanc C and RKO Fanc G cells, FIG. 27B
Experimental: as §1, with “Relative expression refers to the gene expression levels that have been normalised to the housekeeping gene and made relative to the associated control samples.” left out, “The unpaired, two-tailed students T-test available on GraphPad Prism 5.0 software was used to detect statistical significance.” left out
Adherent cells formed whole cell lysates suspended in RIPA buffer containing phosphatase and protease inhibitors (Roche Inhibitor cocktails, Germany). […] Protein was quantified using the BCA Assay (Pierce, Rockford, Ill., USA) according to manufacturer's instructions using a plate reader. […] Results were then visualized and recorded using Luminata Crescendo Western HRP substrate (Millipore, UK) and an alpha imager.
The cytotoxic effects of lymphocytes on cancer cells was measured using LIVE/DEAD® Cell-Mediated Cytotoxicity Kit (Life technologies, Paisley, UK.) RKO parental and Fanc G cells were trypsinised, counted and stained with green-fluorescent membrane stain DiOC18 in PBS at a concentration of 2 μl of stain per ml. […]

[7] = tested on: RKO Parental and RKO FANCG-/- cells; test: Lymphocyte (PBMC) mediated cytotoxicity, LIVE/DEAD Cell-Mediated Cytotoxicity Kit; format: cell-based; conditions: pre-treatment of cancer cells, PBMC ratio 5:1, p-value<0.05, FIG. 27A
Experimental: The cytotoxic effects of lymphocytes on cancer cells was measured using LIVE/DEAD® Cell-Mediated Cytotoxicity Kit (Life technologies, Paisley, UK.) RKO parental and Fanc G cells were trypsinised, counted and stained with green-fluorescent membrane stain DiOC18 in PBS at a concentration of 2 μl of stain per ml. Cells were incubated with the stain for 20 minutes at 37° C. before being seeded into 12 well plates at a density of 1×10^5 cells per well and left to adhere overnight. The next day PMBCs were counted and added to RKO cell cultures at the ratios indicated. For 1:1 ratio 1×10^5 PBMCs were added, for 5:1 ratio 5×10^5 PBMCs were added. The co-cultures were incubated for 4 hours before cells were collected for analysis by flow cytometry. A BD FACSCalibur™ (BD Biosciences, CA, USA) was used for the analysis of samples and Flow Jo software was used for data analysis. Cells were treated with interferon-γ at a concentration of 20 ng/ml for 16 hours.

With CC(C)(C#N)c1ccc(N2C(=O)OCc3cnc4ccc(-c5cnc6ccccc6c5)cc4c32)cc1 [ETP-46464] the “CXCL10 and CCL5 chemokine production / expression levels” value [1] was “No significant decreases”.

O=C(c1cc(Cc2n[nH]c(=O)c3ccccc23)ccc1F)N1CCCNCC1 [KU0058948] was tested, and the “sensitivity to PARP-1 inhibitor (clonogenic survival)” value [2] was “more sensitive”.

C[C@@H]1CN(CC(=O)Nc2ccc3c(c2)Cc2cccc(-c4cc(=O)cc(N5CCOCC5)o4)c2S3)C[C@H](C)O1 [Ku60019] was tested, and the “CXCL10 and CCL5 chemokine production / expression levels” value [1] was “No significant decreases”.

For COC(=O)Nc1nc2ccc(C(=O)c3cccs3)cc2[nH]1 [Nocodazole], the “mRNA expression of CXCL10” value ([3]; anti-mitotic agent treatment, FIG. 15A) was “reduced mRNA expression of CXCL10” and the cell cycle arrest [4] was “arrest in the M phase”.

For O=c1cc(N2CCOCC2)oc2c(-c3cccc4c3sc3ccccc34)cccc12 [Nu7440], the “CXCL10 and CCL5 chemokine production / expression levels” value [1] was “No significant decreases” and the “CXCL10 and CCL5 chemokine production / expression levels” value ([1]; listed as DNAPKi) was “significantly increased”.

CC(=O)O[C@H]1C(=O)[C@@]2(C)[C@H]([C@H](OC(=O)c3ccccc3)[C@]3(O)C[C@H](OC(=O)[C@H](O)[C@@H](NC(=O)c4ccccc4)c4ccccc4)C(C)=C1C3(C)C)[C@]1(OC(C)=O)CO[C@@H]1C[C@@H]2O [Paclitaxel] was tested, and the “CXCL10 and CCL5 relative expression” value ([3]; HeLa, HCC1937 EV and MDA-MB-436 EV cells, IC-50 doses, compared to DMSO control, FIG. 14) was “not significantly increased” and the “cytosolic DNA (PicoGreen, confocal microscopy)” value [5] was “not observed”.

“Interferon-γ: Interferon-γ, cells treated at 20 ng/ml for 16 hours” was tested, and the “PDL1 protein level (western blotting)” value ([6]; RKO Par and RKO Fanc G cells, pre-treatment, FIG. 27C) was “enhanced PDL1 levels”, the “PDL1 gene expression levels (fold change)” value [6] was “significantly increases PDL1 gene expression levels” and the “PDL1 gene expression levels (fold change)” value ([6]; listed as IFN-γ) was “drives PDL-1 expression in DDRD+”.

B1: Interferon-γ: Interferon-γ, cells treated at 20 ng/ml for 16 hours (protein, UniProt P01579 24-161, looked up)
Interferon gamma: QDPYVKEAENLKKYFNAGHSDVADNGTLFLGILKNWKEESDRKIMQSQIVSFYFKLFKNFKDDQSIQKSVETIKEDMNVKFFNSNKKKRDDFEKLTNYSVTDLNVQRKAIHELIQVMAELSPAAKTGKRKRSQMLFRG
For B1, the “lymphocyte mediated cytotoxicity, differential between RKO FANCG-/- and RKO Parental cells” value [7] was “extends the differential cytotoxicity” and the “lymphocyte mediated cytotoxicity, differential between RKO FANCG-/- and RKO Parental cells” value ([7]; listed as IFN-γ) was “protects against PBMC mediated cytotoxicity”.
